Assays:
[1] = test system: cancer cells in the tissue samples (PC90 binding); assay: Peptide competition assay on cancer tissue samples; parameters: species or system human; conditions: peptide 100 ng/ml with PC90 10^9 pfu
Protocol: (§1) Fresh breast cancer tissue samples were obtained from twenty patients having mammary infiltrating ducal carcinoma. Each of the tissue samples was sliced to 4 μm and fixed in 1% paraformaldehyde. The sliced tissue samples were then incubated with PC90 or a control phage. After being washed by PBS containing […] (PBST0.1), the samples were incubated with an anti-M13 mouse mAb (Amersham Biosciences, Piscataway, N.J., USA) for 1 hour at room temperature, washed again with PBST0.1, and the immunoreactivity of each sample was determined using a biotin-free super sensitive polymer-HRP detection system (Biogenex, San Ramon, Calif., USA), following the procedures described in Lee et al. (2004) and Lo et al. The slides, to which the tissue samples were attached, were counterstained with hematoxylin, mounted with Aquatex (Merck, Dannstadt, Germany), and examined by light microscopy. The percentage of the positively stained cells was determined following a method described in Hall et al., J. Pathol. 172:1-4 (1994).
The cancer targeting activity of PC90 was confirmed by a peptide competition assay, in which the cancer tissue samples were incubated with (1) the synthetic peptide (100 ng/ml) SMDPFLFQLLQL (SEQ ID NO:5) (SP90) and PC90 (10^9 pfu) or (2) the control peptide (100 ng/ml) RLLDTNRPLLPY (SEQ ID NO:6; see Lee et al., Cancer Res. 64:8002-8008, 2004) and PC90. […]

[2] = test system: breast tumor xenografts (PC90 binding); assay: In vivo competition: peptide co-injected with PC90, immunostaining of tumor tissues; parameters: species or system mice; conditions: 100 μg peptide co-injected with PC90
Protocol: SP90 was co-administered to test its ability of blocking PC90 from binding to the tumor tissues. Briefly, 100 μg SP90 or the control peptides described above were co-injected with PC90 to mice bearing breast tumor xenografts. The normal organs and tumor tissues were removed and fixed in Bouin's solution (Sigma, Mo., USA). After fixation, the samples were embedded in paraffin blocks, sliced to sections, and the sections were deparaffinized, rehydrated, and subjected to immunostaining using the mouse anti-M13 mAb described in Example 1 above.

[3] = test system: BT483 breast cancer xenografts; assay: In vivo binding (homing) of test phages to breast cancer xenografts, phage recovery from tissues; parameters: species or system SCID mice; conditions: heart, lung; for recovery rates of phage from tumor tissues compared with normal organs: 10^9 pfu i.v., tumor vs brain, FIG. 1
Protocol: SCID mice were injected subcutaneously (s.c.) in the dorsolateral flank with 1×10^7 BT483 cells to induce breast cancer xenografts. The mice bearing xenograft tumors at a size of around 300 mm^3 were administered intravenously (i.v.) with one of the five test phages mentioned in Example 1 above (10^9 pfu) or a control phage. After perfusion, xenograft tumors and organs (i.e., brain, heart, and lung) were removed from each mouse and homogenized. The phages bound to each tissue sample were eluted, recovered using ER2738 bacterial cells as the host, and titered on IPTG/X-Gal agar plates, following the methods described in Lee et al., Cancer Res. 67:10958-10965 (2007) and Lo et al., Mol. Cancer. Ther 7:579-589 (2008).

[4] = test system: breast cancer tissue samples (mammary infiltrating ducal carcinoma); assay: Immunostaining of patient breast cancer biopsy samples with phage; parameters: species or system human; conditions: biopsy samples from twenty patients; anti-M13 immunostaining
Protocol: as §1

## SMDPFLFQLLQL (SEQ ID NO:5) [SP90, synthetic peptide …]
[1]
  competition against PC90 for binding to cancer cells in tissue samples: competed against PC90 for binding to the cancer cells
[2]
  inhibition of PC90 binding to the tumor tissues: 97%
  inhibition of PC90 binding to the tumor tissues (words): significantly inhibited

## TVSWSTTGRIPL (SEQ ID NO: 3) [PC73]
[3]
  recovery rates of phage from tumor tissues compared with normal organs: much higher

## EATNSHGSRTMG (SEQ ID NO: 2) [PC65]
[3]
  recovery rates of phage from tumor tissues compared with normal organs: much higher

## QNIYAGVPMISF (SEQ ID NO: 1) [PC34]
[3]
  recovery rates of phage from tumor tissues compared with normal organs: much higher

## SMDPFLFQLLQL (SEQ ID NO: 5) [PC90]
[3]
  recovery rates of phage from tumor tissues compared with normal organs: much higher
[3]; i.v., tumor xenografts vs brain
  targeting of tumor xenografts and normal organs: bound to cancer cells in the tumor xenografts but not to normal organs
[4]
  patients determined as carrying breast cancer cells: 18 out of the 20

## RLLDTNRPLLPY (SEQ ID NO:6) [control peptide, synthetic control peptide, see Lee et al., Cancer Res. 64:8002-8008, 2004, reference compound]
[1]
  competition against PC90 for binding to cancer cells in tissue samples: not
[2]
  inhibition of PC90 binding to the tumor tissues (words): did not exhibit any inhibitory activity

## QLEFYTQLAHLI (SEQ ID NO: 4) [PC82]
[3]
  recovery rates of phage from tumor tissues compared with normal organs: much higher
